What all share (assay): NCI tumour cell line growth inhibition, 48 h
In assay [1] the test system is UACC-257 melanoma.
Assay [2] relates to OVCAR-8 ovarian.
The subject of assay [3] is MDA-N.
In assay [4] the test system is K-562 leukemia.
Assay [5] concerns CAKI-1 renal.
For assay [6], the system named is EKVX NSCLC.
Assay [7] has as its system NCI-H522 lung.
Assay [8] relates to CCRF-CEM leukemia.
Assay [9] relates to LOX IMVI melanoma.
For assay [10], the system named is HCT-15 colon.

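Following 48 hours of exposure in 96-well plates, responses at five concentrations were used to interpolate endpoints linearly. At the TGI there is no net growth.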

As to `O=C1c2sccc2C(=O)c2c(CO)csc21`, the TGI in [1] is 5.24 µM; in [2] it was 12.4 µM; in assay [3], 3.16 µM; in assay [4], over 100 µM; in [5], 48.2 µM; in assay [6], 26.6 µM. The TGI is 13.6 µM in assay [7], over 51.6 µM in [8], 10.6 µM in [9] and 11.2 µM in assay [10].

As for `CNC(=O)N(C)C(=O)c1ccccc1C(=O)N(C)C(=O)NC`, the TGI in assay [1], in assay [2], in assay [3], in [4], in assay [5] and in [6] was over 10 µM each time. For the same molecule, the TGI in [7], in assay [8], in assay [9] and in [10] was over 10 µM throughout.

With `CCOC(=O)C(NC(=O)c1cccc(Cl)c1)(N1CCN(c2cc3c(cc2F)c(=O)c(C(=O)O)cn3CC)CC1)C(F)(F)F` (stereo not given), the TGI in [1] worked out at 54.9 µM; in assay [2], 46.7 µM; in assay [3], 28.2 µM; in assay [4], 52 µM; in assay [5], 60.9 µM; in assay [6], 68.3 µM. For the same molecule, the TGI in assay [7] worked out at 16.4 µM; in assay [8], 10.7 µM; in assay [9] it was 48.7 µM; in [10], 38.2 µM.

`CC(C)S1=C2C(=O)CC(C)(C)CC2=Nc2ccccc21` (stereo not given): the TGI in assay [1], in [2], in assay [3], in assay [4], in [5] and in [6] was over 100 µM each time. The TGI in [7], in [8], in assay [9] and in assay [10] was over 100 µM throughout.

For `CN1Cc2c(ccc3c2OCO3)[C@@H]2[C@H](O)Cc3cc4c(cc3[C@@H]21)OCO4`, the TGI in assay [1] is over 100 µM; in [2] it was over 51.5 µM; in [3] it was 1.46 µM; in assay [4], over 100 µM; in assay [5], over 100 µM; in [6], over 100 µM. The TGI in assay [7] is 14.6 µM; in assay [8], over 29.2 µM; in [9] it was over 47.3 µM; in assay [10], 6.74 µM.

`CC(=O)Oc1cc(OC(C)=O)c2c(c1C)CC[C@@H]1[C@@H]2CC[C@]2(C)[C@@H](OC(C)=O)CC[C@@H]12`: the TGI was found to be 32 µM in assay [1]; 42.4 µM in assay [2]; 32.9 µM in [3]; 89.2 µM in assay [4]; 52.1 µM in assay [5]; 28 µM in assay [6]. In addition, the TGI in assay [7] was 32 µM; in [8], 49.4 µM; in [9], 34.2 µM; in assay [10], 33.3 µM.

For `Clc1cc2ncn(C3CCCO3)c2cc1Cl` (stereo not given), the TGI in [1], in assay [2], in assay [3], in assay [4], in assay [5] and in assay [6] was over 100 µM in each case. For the same molecule, the TGI in [7], in [8], in [9] and in [10] was over 100 µM throughout.

Consider `COc1ccc(N=C(SSC(=Nc2ccc(OC)cc2)c2ccc([N+](=O)[O-])o2)c2ccc([N+](=O)[O-])o2)cc1`, for which the TGI in assay [1] was over 19.9 µM; in assay [2], 7.71 µM; in assay [3] it was 12.7 µM; in assay [4], over 25.3 µM; in assay [5] it was 5.87 µM; in [6], 3.47 µM. Moreover, the TGI is 0.953 µM in assay [7], over 22.5 µM in assay [8], 5.05 µM in assay [9] and 2.03 µM in [10].

For the molecule `CCN(CC)CCCNc1nnc(C)c2[nH]c3ccccc3c12`, the TGI was 31.8 µM in assay [1]; 42.3 µM in assay [2]; 29.2 µM in [3]; over 100 µM in [4]; over 100 µM in assay [5]; 63.4 µM in assay [6]. The TGI in assay [7] is 21.3 µM; in assay [8], 63.9 µM; in [9], 30.9 µM; in assay [10], over 100 µM.

For the molecule `CCOC(=O)c1c(SCCN(CC)CC)n(-c2ccccc2)c(=S)n(-c2ccccc2)c1=O`, the TGI in [1] amounted to 5.46 µM; in [2], 7.19 µM; in [3], 7 µM; in assay [4] it was 4.32 µM; in assay [5], 4.68 µM; in assay [6] it was 24.8 µM. Also, the TGI in assay [7] stood at 3.67 µM; in assay [8] it was 3.34 µM; in assay [9] it was 4.03 µM; in assay [10], 7.28 µM.

In the case of `CCc1n[nH]c(=O)n1-c1ccncc1`, the TGI in assay [1], in assay [2], in assay [3], in assay [4], in [5] and in assay [6] was over 100 µM throughout. The TGI in assay [7], in [8], in assay [9] and in assay [10] was over 100 µM in each case.

As to `Nn1c(=S)[nH]nc(/C=C/c2c(O)ccc3ccccc23)c1=O`, the TGI in assay [1] was 50.9 µM; in [2], 4.81 µM; in [3] it was over 100 µM; in assay [4], over 100 µM; in assay [5], 36.1 µM; in [6] it was 20.9 µM. Besides, the TGI stood at 16.7 µM in assay [7], 9.7 µM in assay [8], 11.7 µM in [9] and 17.9 µM in assay [10].

Consider `N/N=C(\N)SCc1ccc(N=C=S)cc1`, for which the TGI in assay [1], in [2], in [3], in [4], in assay [5] and in [6] was over 100 µM each time. Also, the TGI in assay [7], in [8], in [9] and in assay [10] was over 100 µM each time.

These data come from PubChem BioAssay (NCI).
